Experimental data from US7989179B2, “LXR ligand testing method” (Daiichi Sankyo Company, Limited, priority 2005, dated 2011).

Columns and labels:
[1] = Cynomolgus monkey consecutive daily administration study; format: in vivo, cynomolgus monkeys; conditions: for Relative value of LDL Cholesterol in Plasma (% of control group) / Relative value of TG in Plasma (% of control group): male cynomolgus monkeys, force fed, PG/Tween
Description: Five to seven year old, male cynomolgus monkeys in groups of 5 animals each were force fed only an administration base (Propylene glycol (Wako Pure Chemical Industries)/Tween 80 (Kao) (volume ratio: 4/1, hereinafter referred to as “PG/Tween”)) (hereinafter referred to as “the control group”), or Compound A or Compound B dissolved in PG/Tween in an amount of 3 mg/kg or 10 mg/kg once a day for 7 days between the hours of 8:00 and 10:00 AM. After fasting for 16 hours starting at 5:00 PM on the 7th day of administration, 1 mL of blood was collected from the cephalic vein with a heparinized syringe followed by centrifuging for 15 minutes at 4° C. and 5000 rpm to obtain plasma.
The levels of LDL cholesterol and triglycerides in the plasma were measured with an auto analyzer (Hitachi Model 7170) followed by calculation of the % of control group (Tables 8 and 9).

[2] = molecular target: T1, heterodimer comprising LXRβ and RXRα (Homo sapiens, UniProt P55055, DUP175-175); test: FRET assay of coactivator peptide binding to His-LXRβ/FLAG-RXRα; format: biochemical
T1 construct: made in house; host or cells: Escherichia coli BL21(DE3)
T1 sequence (P55055 with tags, fused parts or gaps DUP175-175): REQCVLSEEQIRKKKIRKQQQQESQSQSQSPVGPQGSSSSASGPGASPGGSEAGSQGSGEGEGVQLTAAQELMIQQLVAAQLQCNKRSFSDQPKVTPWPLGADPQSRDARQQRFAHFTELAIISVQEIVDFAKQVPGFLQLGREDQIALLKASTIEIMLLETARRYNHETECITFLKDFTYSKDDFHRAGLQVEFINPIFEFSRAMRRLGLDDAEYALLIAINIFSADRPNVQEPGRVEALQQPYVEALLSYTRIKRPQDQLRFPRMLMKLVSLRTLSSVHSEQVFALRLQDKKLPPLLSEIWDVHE
T1 sequence (P19793 201-462 partner limits assumed): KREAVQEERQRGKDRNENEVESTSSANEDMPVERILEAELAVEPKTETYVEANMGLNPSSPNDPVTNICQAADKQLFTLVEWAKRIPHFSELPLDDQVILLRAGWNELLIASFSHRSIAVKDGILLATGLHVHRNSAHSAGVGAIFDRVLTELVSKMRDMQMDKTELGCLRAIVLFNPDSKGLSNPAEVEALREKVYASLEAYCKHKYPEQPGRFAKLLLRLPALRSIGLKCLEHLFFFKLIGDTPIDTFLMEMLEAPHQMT
Description: 8 μl of LXRβ reaction solution (0.025 μl of 8 μM His-LXRβ and FLAG-RXRα mixed solution, 1.00 μl of 10×PBS, 2.50 μl of 2 M KF, 0.10 μl of 10% NP40, 0.15 μl of anti-His tag antibody and 4.23 μl of H2O) containing the His-LXRβ and FLAG-RXRα prepared according to Example 1 were placed in a 384-well assay plate (Greiner Bio-One) and measured according to the same method as Example 2 to determine the % of control (Table 6). There was no significant difference observed in the resulting values between Compound A and Compound B.
(2) […]: According to the same method in Example 3) (using the above peptides (h) to (m), instead of peptides (a) to (g) in Example 3), the amount of the coactivator bound to the heterodimer comprising LXRβ and RXRα were determined. There was no significant difference observed in the resulting values between Compound A and Compound B (Table 7).

[3] = molecular target: T2, heterodimer comprising LXRα and RXRα (Homo sapiens, UniProt Q13133, A196R); test: FRET assay of coactivator peptide binding to His-LXRα/FLAG-RXRα; format: biochemical
T2 construct: amino acid nos; made in house; host or cells: Escherichia coli BL21(DE3)
T2 sequence (Q13133 164-447 A196R): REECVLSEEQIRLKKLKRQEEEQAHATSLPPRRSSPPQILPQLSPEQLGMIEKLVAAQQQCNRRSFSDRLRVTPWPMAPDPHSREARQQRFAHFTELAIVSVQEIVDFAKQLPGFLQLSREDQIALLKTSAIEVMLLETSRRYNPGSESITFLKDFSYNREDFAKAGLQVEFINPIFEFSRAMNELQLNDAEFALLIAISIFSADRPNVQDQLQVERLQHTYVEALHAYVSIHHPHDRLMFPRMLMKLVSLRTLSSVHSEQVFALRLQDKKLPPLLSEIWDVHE
T2 sequence (P19793 201-462 partner limits assumed): T1 sequence (P19793 201-462 partner limits assumed)
Description: 8 μl of LXRα reaction solution (0.05 μl of 4 μM His-LXRα and FLAG-RXRα mixed solution, 1.00 μl of 10×PBS (Sigma Chemical), 2.50 μl of 2 M KF (Wako Pure Chemical Industries), 0.10 μl of 10% NP40 (Sigma Chemical), 0.15 μl of anti-His tag antibody (CIS Bio International) and 4.20 μl of H2O) containing the His-LXRα and FLAG-RXRα prepared according to Example 1 were placed in a 384-well assay plate (Greiner Bio-One).
Next, 2 μl of a solution of Compound A (N-(2,2,2-trifluoroethyl)-N-{4-[2,2,2-trifluoro-1-hydroxy-1-(trifluoromethyl)ethyl]phenyl}benzene sulfonamide (Compound 12 described on page 55 of International Publication WO2000/054759) or Compound B (3-chloro-4-(3-(2-propyl-3-trifluoromethyl-6-benz-[4,5]-isooxazoloxy)propylthio)phenylacetic acid (a compound described in Example 20 on page 70 of International Publication WO1997/028137), dissolved to a concentration of 10 μM in dimethyl sulfoxide (hereinafter referred to as “DMSO”), were added to each well of a 384-well assay plate followed by incubating for 1 hour at room temperature.
Next, 10 μl of peptide reaction solution (1.00 μl of 5 μM peptide, 1.00 μl of 10×PBS, 2.50 μl of 2 M KF, 0.10 μl of 10% NP40, 0.20 μl of streptavidin (CIS Bio International) and 5.20 μl of H2O) were added to each well of the 384-well assay plate and incubated for 17 hours at 4° C. The peptide added here was comprising of any of the amino acid sequences of (a) to (g) below, and the amino acid of the N-terminal was biotinylated.
Following completion of incubation, the assay plate was subjected to excitation light at 337 nm using a fluorescent plate reader (Envision, Perkin-Elmer), and fluorescent absorbance at 665 nm and 620 nm was measured to determine the binding capacity between the protein and the peptide.
The value obtained by multiplying 1000 by the value resulting from dividing the measured value at 665 nm when applying excitation light at 337 nm by the measured value at 620 nm was determined. This value was then divided by the value determined by the same method when only DMSO was added without adding LXR ligand (Compound A or Compound B), and this value was then multiplied by 100 and indicated as the percentage relative to the control (% of control) as shown in Table 6.
The value for % of control determined here is the value, represented by a percentage, that indicates the ratio of the increase in the amount of coactivator bound to LXRα that results from adding LXR ligand, and the larger this value, the larger the amount of coactivator that binds to LXRα.
(1) According to the same method as Example 2) (using the following peptides (h) to (m), instead of the peptides (a) to (g) in Example 2), the amount of coactivator bound to the heterodimer LXRα and RXRα were determined.

THP-1 cells = test: Cholesterol efflux assay; format: cell-based; conditions: compound final concentration 0.1 μM, 24 hours
Description: 3×10^5 THP-1 cells (ATCC No.: TIB-202) were disseminated in a 96-well white plate (Costar) followed by the addition of 200 nM Phorbol 12-Myristate 13-Acetate (Sigma) and culturing for 24 hours at 37° C. in a CO2 incubator. […] Following completion of culturing, 100 μl of PBS containing 0.2% bovine serum albumin (hereinafter referred to as “BSA”, (Sigma Chemical)) were added to each well to wash the cells. Next, 100 μl of RPMI 1640 containing Apolipoprotein A1 (hereinafter referred to as “ApoA1”, (Biogenesis)) at a final concentration of 10 μg/ml, or RPMI 1640 not containing ApoA1, were added to each well. […] Following completion of culturing, the plate was centrifuged for 5 minutes at 1,000 rpm and 4° C. 75 μl of medium in the form of the centrifuged supernatant were transferred to a 96-well Luma plate (Packard) and allowed to dry. […] 20 (Packard) were added to each well of the plate containing the washed cells and allowed to stand overnight, followed by measuring the radioactivity of the medium and cells with a scintillation counter (Top Count, Packard). Percent (%) efflux was calculated from the measured values using the calculation formula shown below. % efflux=(Specific radioactivity of medium(CPM)/75×100)/(Specific radioactivity of medium(CPM)+specific radioactivity of cells(CPM))×100 […]

[4] = peptide ASC2 NR-1, 2 μl of 10 μM compound solution in DMSO
[5] = peptide ASC2 NR-2, 2 μl of 10 μM compound solution in DMSO
[6] = peptide PGC-1α, 2 μl of 10 μM compound solution in DMSO
[7] = peptide SRC1-2, 2 μl of 10 μM compound solution in DMSO
[8] = peptide SRC1-3, 2 μl of 10 μM compound solution in DMSO
[9] = peptide SRC1-4, 2 μl of 10 μM compound solution in DMSO
[10] = peptide TIF2, 2 μl of 10 μM compound solution in DMSO

Relative value of LDL Cholesterol in Plasma (% of control group) ([1]; 3 mg/kg once a day for 7 days): 137%
Relative value of TG in Plasma (% of control group) ([1]; 3 mg/kg once a day for 7 days): 429%
Relative value of LDL Cholesterol in Plasma (% of control group) ([1]; 10 mg/kg once a day for 7 days): 207%
Relative value of TG in Plasma (% of control group) ([1]; 10 mg/kg once a day for 7 days): 661%
LXRβ (% of control) ([2]; peptide ACTR NRB3, same method as Example 3): 129 % of control
LXRβ (% of control) [2, 4]: 114.5 % of control
LXRβ (% of control) [2, 5]: 120.4 % of control
LXRβ (% of control) ([2]; peptide DAX1, same method as Example 3): 116 % of control
LXRβ (% of control) ([2]; peptide PERC NRB2, same method as Example 3): 104 % of control
LXRβ (% of control) [2, 6]: 191.0 % of control
LXRβ (% of control) ([2]; peptide PNRC, same method as Example 3): 109 % of control
LXRβ (% of control) [2, 7]: 120.4 % of control
LXRβ (% of control) [2, 8]: 110.6 % of control
LXRβ (% of control) [2, 9]: 154.6 % of control
LXRβ (% of control) [2, 10]: 107.9 % of control
LXRβ (% of control) ([2]; peptide TIF2 NRB2, same method as Example 3): 125 % of control
LXRβ (% of control) ([2]; peptide TRAP220, same method as Example 3): 111 % of control
LXRα (% of control) ([3]; peptide ACTR NRB3, same method as Example 2): 167 % of control
LXRα (% of control) [3, 4]: 155.8 % of control
LXRα (% of control) [3, 5]: 254.0 % of control
LXRα (% of control) ([3]; peptide DAX1, same method as Example 2): 158 % of control
LXRα (% of control) ([3]; peptide PERC NRB2, same method as Example 2): 127 % of control
LXRα (% of control) [3, 6]: 361.7 % of control
LXRα (% of control) ([3]; peptide PNRC, same method as Example 2): 140 % of control
LXRα (% of control) [3, 7]: 267.0 % of control
LXRα (% of control) [3, 8]: 181.3 % of control
LXRα (% of control) [3, 9]: 207.3 % of control
LXRα (% of control) [3, 10]: 266.7 % of control
LXRα (% of control) ([3]; peptide TIF2 NRB2, same method as Example 2): 268 % of control
LXRα (% of control) ([3]; peptide TRAP220, same method as Example 2): 131 % of control
SMILES: O=S(=O)(c1ccccc1)N(CC(F)(F)F)c1ccc(C(O)(C(F)(F)F)C(F)(F)F)cc1 [Compound A, N-(2,2,2-trifluoroethyl)-N-{4-[2,2,2-trifluoro-1-hydroxy-1-(trifluoromethyl)ethyl]phenyl}benzenesulfonamide]
effect on plasma LDL cholesterol and triglyceride concentration (result in words) ([1]; cynomolgus monkeys, 7 days administration): increase LDL cholesterol concentration and triglyceride concentration in the plasma
effect on amount of coactivator bound to LXRα (result in words) ([3]; Example 2, peptides (a) to (g)): increases the amount of coactivator bound to LXRα
relative cholesterol efflux activity (% efflux, Compound A at 1 μM = 100) (THP-1 cells): 86%
